Test results reported in patent US20230151371A1, “POLYPEPTIDES HAVING EPOXY GROUP-REMOVING CATALYTIC ACTIVITY, NUCLEIC ACIDS ENCODING THE POLYPEPTIDES AND USE THEREOF” (priority 2020, published 2023).
Where two headings read alike, the source gives them in different places.

What was measured:
[1] = tested on: normal human esophageal epithelial cells (HEECs)
[2] = tested on: human embryonic kidney cell 293-derived line (293T)
[3] = tested on: pancreatic cancer cell line (PATU8988)

Measured: cell viability (CCK-8, OD450)

HT-2 toxin
decreased sharply: [1] | [2] | [3]

3-acetyl-deoxynivalenol [3-ADON]
decreased sharply: [1]; HEEC, 48 h treatment | [2]; 293T, 48 h treatment | [3]; PATU8988, 48 h treatment

deoxynivalenol [DON]
decreased sharply: [1]; HEEC, 48 h treatment | [2]; 293T, 48 h treatment | [3]; PATU8988, 48 h treatment

15-acetyl-deoxynivalenol [15-ADON]
decreased sharply: [1]; HEEC, 48 h treatment | [2]; 293T, 48 h treatment | [3]; PATU8988, 48 h treatment

fusarenon-X [FUS-X]
decreased sharply: [1]; HEEC, 48 h treatment | [2] | [3]
